Experimental data reported in patent US10555957B2, “Methods and compositions for enriching DHA levels in the brain” (The Board of Trustees of the University of Illinois, a body …, priority 2017, dated 2020).
Values joined by “and” are separate entries in the source; they are usually repeats but may differ in a detail not shown here. Equal entries are not always repeated.

Tests used:
[1] = ref [32]; cited from earlier work
[2] = Feeding study, daily gavage for 30 days: fatty acid and DHA lipid species of plasma, liver, heart, adipose tissue and brain regions
[3] = Intestinal absorption of micellar DHA into lymph (HDL, chylomicrons; PC, TAG) in rats with lymph duct cannulation; format: in vivo, Sprague-Dawley rats
Protocol: Two types of micelle, one containing the DHA as free fatty acid, and the other containing the DHA as LPC, were prepared by sonication. All components except taurocholate were added as chloroform solutions to a glass tube and the solvent was evaporated under nitrogen. Then 10 ml of sodium taurocholate solution (12 mM, in PBS, pH 7.4) was added to the tube and the lipids dispersed by vortexing for 1 min. The mixture was then sonicated in a Sonics Vibro Cell sonicator at 40% setting for four 30 sec pulses at 1 min intervals, while the tube was immersed in ice. The resulting micelle were optically clear, and were used immediately for infusion into rats.
Thoracic lymph duct cannulation was carried out as described with slight modifications. The rats were fasted overnight before the procedure. Under analgesics and isoflurane anesthesia, the abdomen was opened, the dorsal parietal peritoneum was incised, and the aorta was dissected free from the surrounding muscle and thoracic duct. The duct was cannulated (3-5 mm) with a heparin (500 units/ml) and saline-rinsed, pre-cut catheter (16 gauge, BD Angiocath). Following insertion, the catheter was connected to ‘U” shaped secured Silastic Laboratory tubing to prevent displacement or dislodgement. Micelle (10 ml) were infused at a rate of 3 ml/h into the duodenum (Harvard pump) through a second catheter positioned into the duodenum, followed by the infusion of 10 ml PBS, at 3 ml/h. The abdomen was closed and the lymph was collected for 6 h, in 30 min fractions into tubes containing 1.0 ml of PBS, while the animal was under anesthesia. The body temperature of the animal was maintained at 37° C. with the help of a heating pad.
The volume of each lymph fraction was made up to 2.0 ml with PBS, containing 1 mM EDTA (final). The density of lymph fraction was raised to 1.063 g/ml by the addition of KBr and centrifuged at 100,000×g for 4 h at 4° C. in the TLA 100.3 rotor of the Beckman TL-100 ultracentrifuge. One ml of the bottom layer was aspirated to a new tube (HDL) and the remaining 1.0 ml was taken as the chylomicrons (CM).
Extraction and Analysis of Lipids. The total lipids of HDL and CM were extracted by the Bligh and Dyer method after spiking the samples with 25 μg each of 15:0-15:0-15:0 TAG and 17:0-17:0 PC. The lipid extract was applied to an aminopropyl silica cartridge (100 mg) in 1 ml of chloroform under gravity, and the cartridge was washed with chloroform (2×1.0 ml) to elute the TAG and cholesteryl esters. […] The PC was then eluted with 2.0 ml of chloroform: methanol (3:2, v/v)).
The temperature program was as follows: 165° C. for 1 min, raised to 210° C. at the rate of 6.5° C./min, followed by raising to 240° C. at the rate of 3.5° C./min, and maintaining at 240° C. for 10 min. The total analysis time was 26.5 min. The injection temperature was 250° C., ion source temperature 230° C. and the interface temperature was 250° C. […] The identification of individual FAME was done by comparison of retention times with the standard mixture (PUFA2, Sigma) as well as by the characteristic fragment ions (m/z 74 for saturated, m/z 55 for monounsaturated, m/z 67 for diunsaturated, and m/z 79 for polyunsaturated).

BDNF = BDNF concentration in the brain regions by ELISA; format: in vivo, C57BL/6 mice; conditions: 1 mg DHA/day, 30 days, n=6
From the text: Therefore, we determined BDNF concentration in the brain regions by ELISA to complement our MWM data.

normal adult mice = experiment: Morris water maze test; format: in vivo, C57BL/6 mice; conditions: for latency time to the previous platform area / time in the target quadrant: n=5; for finding the previous platform area, faster than the control and free DHA groups / time spent in the target quadrant versus control and free DHA groups: study 1, probe trial
[4] = Feeding free EPA or LPC-EPA for 15 days: omega 3 fatty acids and arachidonic acid in tissues; format: in vivo, Mice; conditions: 1 mg EPA/day for 15 days
[5] = as above; format: in vivo, Mice; conditions: oral
Protocol: Mice were fed oral preparations of free EPA or LPC-EPA at about 1 mg/kg per day for 15 days. The compounds were dispersed in corn oil (80 μl) and fed daily by gavge.

[6] = Isomerization / isomer stability of LPC-DHA; format: physicochemical
Protocol: LPC-DHA was prepared by the hydrolysis of 16:0-22:6 PC by immobilized Mucor lipase (Lipozyme) by a modification of the published procedure. Briefly, 100 mg of Lipozyme was added to 50 mg of 16:0-22:6 PC dissolved in 1 ml of 95:5 (v/v) ethanol: water. The reaction mixture was incubated at 37° C. for 72 h under nitrogen with shaking. The reaction mixture was dried under nitrogen and extracted with 4 ml of ethanol: water: hexane (2:1:1, by vol) mixture to remove the free fatty acid. The lower layer was concentrated under nitrogen and extracted by Bligh and Dyer procedure. The final sample contained 95% LPC, the rest being unhydrolyzed PC, as determined by lipid phosphorus estimation after TLC separation. Although this enzyme produces sn-2 22:6 LPC, this isomer is unstable, and is non-enzymatically isomerized to sn-1-22:6 LPC [24,25].
sn-2 DHA LPC was prepared by the hydrolysis of 16:0-22:6 PC with immobilized Mucor lipase (Lipozyme) by a modification of the published procedure^44. […] The preparation contained >95% of lipid phosphorus in LPC DHA and the rest in unhydrolyzed PC, as determined by TLC, and was used for feeding studies without further purification. […] More than 95% of the 2-acyl LPC DHA was converted to 1-acyl isomer under these conditions, as determined by LC/MS.

[7] = cited from earlier work
[8] = about 1 mg/kg per day for 15 days

In the case of `CCCCCCCCCCCCCCCC(=O)OCC(O)COP(=O)([O-])OCC[N+](C)(C)C` (stereo not drawn) [16:0 LPC], the “recovery of 16:0 in lymph PC after infusion of 16:0 LPC” value [1] is given as 25-30%.

For `CC/C=C\C/C=C\C/C=C\C/C=C\C/C=C\C/C=C\CCC(=O)O` [free DHA, (4Z,7Z,10Z,13Z,16Z,19Z)-docosa-4,7,10,13,16,19-hexaenoic acid, reference compound], the “DHA concentration and 22:6/20:4 ratio in adipose tissue” value ([2]; 1 mg DHA/day, 30 days) was “increase”, the “20:4-22:6 PC in the hippocampus” value ([2]; LC/MS/MS) was “increased” and the “DHA-PC species in plasma” value ([2]; LC/MS/MS) was “not”. The “major species of DHA-PE in the hippocampus” value ([2]; LC/MS/MS) was “not”, the “plasma TAG species containing DHA” value ([2]; LC/MS/MS) was “increased more” and the “LPC DHA concentration of plasma” value ([2]; LC/MS/MS, 1 mg DHA/day, 30 days) was “not”. For the same compound, the “22:6/20:4 ratio in brain regions” value ([2]; all regions of brain) was “no significant increase”, the “increase of brain DHA levels in normal adult mice” value ([2]; equal amount of DHA, 30 days) was “did not appreciably increase” and the “percentage of 22:6/22:6/18:1 TAG species” value ([3]; HDL and CM, free DHA compared to LPC-DHA) was “significantly higher”. For the same compound, the “TAG species containing DHA at all 3 positions” value ([3]; free DHA compared to LPC-DHA absorption) was “significantly higher”, the “significant amount of free DHA in the lymph after infusion” value [3] was “not observed” and the “BDNF content in regions of the brain” value (BDNF) was “no change”. For the same compound, the “latency time to the previous platform area” value (normal adult mice; second study, probe trial) was 47.1 s and the “time in the target quadrant” value (normal adult mice; second study, probe trial) was 12 s.

In the case of `CC/C=C\C/C=C\C/C=C\C/C=C\C/C=C\CCCC(=O)O` [free EPA, eicosapentaenoic acid], the “enriching the total omega 3 fatty acids in the heart” value [4] is reported as “equally efficient”, the “omega 3 fatty acid content of adipose tissue” value [4] is reported as “enriched more” and the “omega 3 fatty acids in erythrocytes” value [4] is reported as “increased”. For the same compound, the “all three n-3 fatty acids in the liver” value ([5]; 15 days) was “increased”, the “decrease in liver arachidonic acid level” value ([5]; 15 days) was about 60% and the “decrease of brain content of arachidonic acid” value ([5]; 15 days) was about 12%. The “increase of brain EPA (in words)” value [5, 8] was “to a small extent”, the “increase of total amount of brain Omega 3 fatty acids (EPA+DPA+DHA)” value [5, 8] was “no change” and the “increase of brain DHA content” value ([5]; about 1 mg/kg per day for 15 days, corn oil gavage) was “no effect”.

In the case of `CC/C=C\C/C=C\C/C=C\C/C=C\C/C=C\C/C=C\CCC(=O)OC[C@@H](O)COP(=O)([O-])OCC[N+](C)(C)C` [sn-1 DHA LPC], the “18:1-22:6 PC in plasma, between the two LPC isomers” value ([2]; mouse, in vivo) is reported as “greater increase”, the “22:6/20:4 ratio in liver” value ([2]; mouse, in vivo) is reported as “significantly increased” and the “DHA concentration in liver” value ([2]; mouse, in vivo) is reported as “did not reach statistical significance”. The “enrichment of all the brain regions with DHA” value ([2]; mouse, in vivo) was “significantly enriched”, the “increase in plasma LPC DHA, sn-1 DHA LPC compared to sn-2 DHA LPC” value ([2]; mouse, in vivo) was 28% and the “increase of DHA content (nmol/mg) in striatum and amygdala” value ([2]; mouse, in vivo) was “did not reach statistical significance”. For the same compound, the “BDNF content in regions of the brain” value (BDNF) was “significantly increased”, the “acquisition phase, learning the location of the platform by Day 5” value (normal adult mice; second study) was “faster” and the “latency time to the previous platform area” value (normal adult mice; second study, probe trial) was 12.7 s. For the same compound, the “time in the target quadrant” value (normal adult mice; second study, probe trial) was 29.9 s, the “finding the previous platform area, faster than the control and free DHA groups” value (normal adult mice) was 7 times and the “time spent in the target quadrant versus control and free DHA groups” value (normal adult mice) was “twice as long”.

For `CC/C=C\C/C=C\C/C=C\C/C=C\C/C=C\C/C=C\CCC(=O)O[C@H](CO)COP(=O)([O-])OCC[N+](C)(C)C` [sn-2 DHA LPC], the “22:6/20:4 ratio in liver” value ([2]; 1 mg DHA/day, 30 days) was “increase”, the “DHA concentration in liver” value ([2]; 1 mg DHA/day, 30 days) was “significantly increased” and the “concentration of 20:4 in liver” value ([2]; 1 mg DHA/day, 30 days) was “parallel decrease”. The “enrichment of all the brain regions with DHA” value ([2]; cortex, cerebellum, hippocampus, striatum, amygdala, % of total fatty acids) was “significantly enriched”, the “BDNF content in regions of the brain” value (BDNF) was “significantly increased” and the “finding the previous platform area, faster than the control and free DHA groups” value (normal adult mice) was 7 times. For the same compound, the “time spent in the target quadrant versus control and free DHA groups” value (normal adult mice) was “twice as long”, the “isomerization to the sn-1 isomer, compared with sn-2 16:0 LPC” value ([6]; physiological pH and temperature, unpublished results) was “much slower” and the “LPC remaining as sn-2 isomer” value ([6]; stored in chloroform: methanol (9:1) at −20° C., at least 4 weeks) was “Over 90%”.

In the case of “docosahexaenoic acid-lysophosphatidylcholine [LPC-DHA]”, the “increase of DHA content in most regions of the brain (nmol of DHA per mg wet weight)” value ([2]; 1 mg DHA/day, 30 days) is reported as 2-3 fold, the “percentage of DHA in plasma” value ([2]; % of total fatty acids, 1 mg DHA/day, 30 days) is reported as “greater” and the “percentage of 16:0/22:6 PC” value ([3]; HDL and CM, LPC-DHA compared to free DHA absorption) is reported as “significantly lower”. For the same compound, the “significant amount of free DHA in the lymph after infusion” value [3] was “not observed”, the “increase in amount of DHA recovered in lymph HDL, compared to free DHA absorption” value ([3]; lymph HDL) was over 2 fold and the “hydrolysis in the intestinal lumen (intestinal contents after the 6 h lymph collection)” value ([3]; some experiments) was “no hydrolysis of LPC in the lumen”. The “percent of whole lymph DHA appearing in PC, LPC compared to free fatty acid” value ([3]; whole lymph) was 5 times, the “percent of whole lymph DHA appearing in PC” value ([3]; whole lymph, mean±SEM) was 18.72±2.88% and 18% and the “brain uptake of injected compound compared with free DHA” value ([7]; kinetic studies [7]) was “higher”. The “efficiency of passing through the BBB compared with free fatty acid” value ([7]; previous studies in animals [5,6]) was “about 10 times”, the “decrease in the latency to previous platform area, compared to the control or free DHA treated animals” value (normal adult mice; probe trial) was 7 fold and the “increase in the time spent in the target quadrant, compared to the control or free DHA treated animals” value (normal adult mice; probe trial) was 2 fold.
